Drawing on patent US9718782B2, “TrkA kinase inhibitors, compositions and methods thereof” (MERCK SHARP & DOHME CORP, priority 2013, dated 2017), this text covers IC50 for seven molecules.

The assay deals with T1, TrkA receptor (Homo sapiens, UniProt P04629).
T1 construct: host or cells: U2OS (PathHunter, 'TrkA p75' cells)
T1 sequence (P04629 33-796): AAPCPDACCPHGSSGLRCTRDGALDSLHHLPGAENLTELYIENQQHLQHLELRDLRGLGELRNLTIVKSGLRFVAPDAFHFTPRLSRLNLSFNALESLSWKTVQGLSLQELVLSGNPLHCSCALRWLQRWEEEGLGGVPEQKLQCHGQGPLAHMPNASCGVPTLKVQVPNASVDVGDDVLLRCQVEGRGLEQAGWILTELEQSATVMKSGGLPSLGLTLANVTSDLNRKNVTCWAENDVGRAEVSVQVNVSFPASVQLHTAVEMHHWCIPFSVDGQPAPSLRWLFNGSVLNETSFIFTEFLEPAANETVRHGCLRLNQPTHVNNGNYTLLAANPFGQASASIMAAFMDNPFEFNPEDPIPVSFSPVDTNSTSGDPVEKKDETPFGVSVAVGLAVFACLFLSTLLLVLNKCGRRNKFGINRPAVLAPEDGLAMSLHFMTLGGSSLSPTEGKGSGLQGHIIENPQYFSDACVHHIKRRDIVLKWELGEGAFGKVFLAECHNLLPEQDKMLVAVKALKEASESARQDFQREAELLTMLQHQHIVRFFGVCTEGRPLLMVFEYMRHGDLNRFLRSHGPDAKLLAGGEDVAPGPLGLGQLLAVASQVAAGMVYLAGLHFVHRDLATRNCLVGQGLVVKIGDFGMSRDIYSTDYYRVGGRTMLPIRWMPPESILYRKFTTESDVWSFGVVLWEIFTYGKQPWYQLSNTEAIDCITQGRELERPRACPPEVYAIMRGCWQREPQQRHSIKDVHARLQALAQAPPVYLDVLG
Description: DiscoverX PathHunter TrkA functional assay (NGF-stimulated U2OS cells). Format: cell-based. Conditions: U2OS cells expressing TrkA-Prolink fusion and Shc1-EA; compound 1 hour, then EC80 NGF 3 hours; luminescence. The protocol:
TrkA functional activity was measured using a DiscoverX PathHunter assay. In this assay, U2OS cells are express TrkA receptor as a fusion with the weakly complementing fragment of B-galactosidase, which DiscoverX calls “Prolink (PK)”; additionally, Shcl is fused with a larger fragment, which is called “Enzyme Acceptor (EA)”. Activation of the TrkA receptor, upon NGF addition, results in the kinase domain being phosphorylated, resulting in subsequent recruitment of Shcl-EA protein. That recruitment results in an active B-galactosidase enzyme that is detected by addition of a chemiluminescent substrate.
All reagents were purchased from DiscoverX, except for the receptor agonists (NGF, BDNF, NT3) which were purchased from Peprotech. Cells were expanded and frozen into cryovials (TrkA p75 @passage 13, 1.5×10^7 cells/vial; TrkC p75 @passage 11, 1.5×10^7 cells/vial in InVitrogen Recovery Cell Freezing media), and stored in the vapor phase of liquid nitrogen, and thawed immediately before use. Thawed cells were added to a 384-well plate (BD Falcon 384-well white/clear, TC surface 120 uL assay plates (353963), 20 uL of 0.375e6 cells/mL=>7500 cells/well), and allowed to incubate overnight. Compound (10 mM starting dose: 202.5 nL compound yielding 0.81% DMSO final in total assay volume and starting doses 81 uM) was added the following morning and allowed to incubate on cells for 1 hour. Then, 5 uL EC80 of agonist (NGF for TrkA; BDNF for TrkB; NT3 for TrkC) was added and allowed to incubate for 3 hours at room temperature. DiscoverX PathHunter detection reagent is added (12 uL to plate and components diluted in parts as per kit instructions) and the plate is further incubated for 1 hour in the dark. The plate is read via luminescence on the Perkin Elmer Envision.
One may read the IC50 as the concentration at which inhibition is half-maximal. A high value points to a need for much substance. As to `O=C(Nc1cccc(-n2cnnc2)c1)NC1c2ccccc2-c2ccccc21` [Compound 34, 1-(9H-fluoren-9-yl)-3-[3-(4H-1,2,4-triazol-4-yl)phenyl]urea], the IC50 amounted to 1100 nM.

`O=C(Nc1c(-c2ccco2)nc2ccccn12)NC1c2ccccc2-c2ccccc21` [Compound 68, 1-(9H-fluoren-9-yl)-3-(2-furan-2-ylimidazo[1,2-a]pyridin-3-yl)urea] yielded an IC50 of 970 nM.

Molecule `Cc1cc(-c2ccc(F)cc2)c(NC(=O)NC2c3ccccc3-c3ccccc32)cn1` [Compound 29, 1-(9H-fluoren-9-yl)-3-[4-(4-fluorophenyl)-6-methylpyridin-3-yl]urea] had an IC50 of 480 nM.

Molecule `COc1ccc(-c2cc(NC(=O)NC3c4ccccc4-c4ccccc43)n(-c3ccccc3)n2)cc1` [Compound 24, 1-(9H-fluoren-9-yl)-3-[3-(4-methoxyphenyl)-1-phenyl-1H-pyrazol-5-yl]urea] had an IC50 of 550 nM.

For `O=C(Nc1c(-c2ccccc2)nc2ccccn12)NC1c2ccccc2-c2ccccc21` [Compound 21, 1-(9H-fluoren-9-yl)-3-(2-phenylimidazo [1,2-a]pyridin-3-yl)urea], the IC50 came to 28 nM.

In turn, `O=C(Nc1cccnc1-c1ccncc1)NC1c2ccccc2-c2ccccc21` [Compound 50, 1-(2,4′-bipyridin-3-yl)-3-(9H-fluoren-9-yl)urea] registered a half-maximal inhibitory concentration (IC50) of 880 nM.

For the molecule `Cc1cc(NC(=O)NC2c3ccccc3-c3ccccc32)n(-c2ccccn2)n1` [Compound 39, 1-(9H-fluoren-9-yl)-3-(3-methyl-1-pyridin-2-yl-1H-pyrazol-5-yl)urea], the IC50 was 3000 nM.
